Converted amounts (≈) assume the structure as drawn.

Holding throughout (assay): In vitro antibacterial activity (MIC), agar dilution method according to NCCLS
Assay type in all cases: cell-based
Background: In agar dilution, organisms are placed on agar that contains the substance at set levels.

Experiment [1] deals with S. aureus MS16401 (quinolone-resistant S. aureus). The following applies: Muller-Hinton agar medium. As for the experimental part:
(§1) The in vitro antibacterial activity (as measured by the minimum inhibitory concentration (MIC)) was determined for each of the compounds of the present invention by the agar dilution method according to NCCLS (National Committee for Clinical Laboratory Standard (1997), Methods for Dilution Antibacterial Susceptibility Tests for Bacteria that grow Aerobically-Forth Edition: Approved Standard m7-A4. NCCLS, Villanova, Pa.), which involved the use of Muller-Hinton agar medium.

A further experiment deals with S. aureus Smith. Particulars: Muller-Hinton agar medium. As for the experimental part:
as §1

The test system of experiment [2] is S. aureus MR5867 (methicillin-resistant S. aureus). The following applies: Muller-Hinton agar medium. As for the experimental part:
as §1

The subject of the next experiment is S. pneumoniae Type III. The following applies: Muller-Hinton agar medium containing 5% defibrinated equine blood.
For the next experiment, the system named is E. faecalis IID682. Set-up: unit not given here. Particulars: Muller-Hinton agar medium containing 5% defibrinated equine blood.

In the case of `C[C@@H]1CN(c2c(F)cc3c(=O)c(C(=O)O)cn4c3c2OC[C@@H]4C)C[C@H]1CNC1CC1` (relative stereo) [Example 10, (3S)-10-(trans-3-cyclopropylaminomethyl-4-methyl-1-pyrrolidinyl)-9-fluoro-2,3-dihydro-3-methyl-7-oxo-7H-pyrido[1,2,3-d,e][1,4]benzoxazine-6-carboxylic acid], the MIC stood at 63 µg/mL (≈ 152 µM) in experiment [1]; 0.016 against S. aureus Smith; 0.016 in experiment [2]; 0.031 in the experiment on S. pneumoniae Type III; 0.125 with E. faecalis IID682.

`C[C@H]1CN(c2c(F)cc3c(=O)c(C(=O)O)cn4c3c2OC[C@@H]4C)C[C@H]1CNC1CC1` (relative stereo) [Example 13, (3S)-10-(cis-3-cyclopropylaminomethyl-4-methyl-1-pyrrolidinyl)-9-fluoro-2,3-dihydro-3-methyl-7-oxo-7H-pyrido[1,2,3-d,e][1,4]benzoxazine-6-carboxylic acid]: the MIC in experiment [1] amounted to 31 µg/mL (≈ 74.6 µM); against S. aureus Smith, 0.008; in experiment [2] it was 0.008; against S. pneumoniae Type III it was 0.031; in the experiment on E. faecalis IID682, 0.125.

In the case of `C[C@@H]1CN(c2c(F)cc3c(=O)c(C(=O)O)cn4c3c2OC[C@@H]4CF)C[C@H]1CNC1CC1` (relative stereo) [Example 16, (3R)-10-(trans-3-cyclopropylaminomethyl-4-methyl-1-pyrrolidinyl)-9-fluoro-3-fluoromethyl-2,3-dihydro-7-oxo-7H-pyrido[1,2,3-d,e][1,4]benzoxazine-6-carboxylic acid], the MIC in experiment [1] is 63 µg/mL (≈ 145 µM); in the experiment on S. aureus Smith, 0.016; in experiment [2], 0.016; in the experiment on S. pneumoniae Type III it was 0.032; in the experiment on E. faecalis IID682, 0.063.

Consider `C[C@H]1COc2c(N3C[C@@H](CNC4CC4)[C@H](C(F)(F)F)C3)c(F)cc3c(=O)c(C(=O)O)cn1c23` (relative stereo) [Example 19, (3S)-10-(trans-3-cyclopropylaminomethyl-4-trifluoromethyl-1-pyrrolidinyl)-9-fluoro-2,3-dihydro-3-methyl-7-oxo-7H-pyrido[1,2,3-d,e][1,4]benzoxazine-6-carboxylic acid], for which the MIC in experiment [1] came to 125 µg/mL (≈ 266 µM); in the experiment with S. aureus Smith it was 0.016; in experiment [2] it was 0.016; in the experiment with S. pneumoniae Type III, 0.125; in the experiment on E. faecalis IID682, 0.25.

With `O=C(O)c1cn2c3c(c(N4CC[C@@H](CNC5CC5)C4)c(F)cc3c1=O)OC[C@@H]2CF` [Example 1, (3R)-10-[(3S)-3-cyclopropylaminomethyl-1-pyrrolidinyl]-9-fluoro-3-fluoromethyl-2,3-dihydro-7-oxo-7H-pyrido[1,2,3-d,e][1,4]benzoxazine-6-carboxylic acid], the MIC in experiment [1] stood at 125 µg/mL (≈ 298 µM); against S. aureus Smith it was 0.016; in experiment [2] it was 0.016; in the experiment on S. pneumoniae Type III it was 0.032; with E. faecalis IID682 it was 0.063.

On to `O=C(O)c1cn2c3c(c(N4CC[C@H](CNC5CC5)C4)c(F)cc3c1=O)OC[C@@H]2CF` [Example 2, (3R)-10-[(3R)-3-cyclopropylaminomethyl-1-pyrrolidinyl]-9-fluoro-3-fluoromethyl-2,3-dihydro-7-oxo-7H-pyrido[1,2,3-d,e][1,4]benzoxazine-6-carboxylic acid], for which the MIC in experiment [1] worked out at 250 µg/mL (≈ 596 µM); with S. aureus Smith, 0.031; in experiment [2], 0.016; against S. pneumoniae Type III it was 0.125; in the experiment with E. faecalis IID682 it was 0.25.

`COC[C@H]1COc2c(N3CC[C@@H](CNC4CC4)C3)c(F)cc3c(=O)c(C(=O)O)cn1c23` [Example 4, (3S)-10-[(3S)-3-cyclopropylaminomethyl-1-pyrrolidinyl]-9-fluoro-2,3-dihydro-3-methoxymethyl-1-oxo-7H-pyrido[1,2,3-d,e][1,4]benzoxazine-6-carboxylic acid]: the MIC in experiment [1] is 500 µg/mL (≈ 1160 µM); against S. aureus Smith, 0.031; in experiment [2] it was 0.031; in the experiment with S. pneumoniae Type III, 0.125; in the experiment with E. faecalis IID682, 0.25.

Turning to `CC(=O)OC[C@@H]1COc2c(N3CC[C@@H](CNC4CC4)C3)c(F)cc3c(=O)c(C(=O)O)cn1c23` [Example 5, (3S)-3-acetoxymethyl-10-[(3S)-3-cyclopropylaminomethyl-1-pyrrolidinyl]-9-fluoro-2,3-dihydro-7-oxo-7H-pyrido[1,2,3-d,e][1,4]benzoxazine-6-carboxylic acid], the MIC was determined as 4000 µg/mL (≈ 8710 µM) in experiment [1]; 0.25 against S. aureus Smith; 0.25 in experiment [2]; 0.125 with S. pneumoniae Type III; 0.25 in the experiment on E. faecalis IID682.

In the case of `O=C(O)c1cn2c3c(c(N4CC[C@@H](CNC5CC5)C4)c(F)cc3c1=O)OC[C@@H]2CO` [Example 6, (3S)-10-[(3S)-3-cyclopropylaminomethyl-1-pyrrolidinyl]-9-fluoro-2,3-dihydro-3-hydroxymethyl-7-oxo-7H-pyrido[1,2,3-d,e][1,4]benzoxazine-6-carboxylic acid], the MIC in experiment [1] came to 4000 µg/mL (≈ 9580 µM); with S. aureus Smith, 0.25; in experiment [2], 0.25; against S. pneumoniae Type III it was 0.125; against E. faecalis IID682, 0.25.

As for `C=C1COc2c(N3CC[C@@H](CNC4CC4)C3)c(F)cc3c(=O)c(C(=O)O)cn1c23` [Example 7, 10-[(3S)-3-cyclopropylaminomethyl-1-pyrrolidinyl]-9-fluoro-2,3-dihydro-3-methylene-7-oxo-7H-pyrido[1,2,3-d,e][1,4]benzoxazine-6-carboxylic acid], the MIC in experiment [1] is 63 µg/mL (≈ 158 µM); with S. aureus Smith it was “≦0.008 mg/mL”; in experiment [2] it was “≦0.008 mg/mL”; in the experiment with S. pneumoniae Type III it was 0.016; in the experiment on E. faecalis IID682, 0.125.

`C[C@H]1CN(c2c(F)cc3c(=O)c(C(=O)O)cn4c3c2OC[C@@H]4C)C[C@@H]1CNC1CC1` [Example 11, (3S)-10-[(3S,4R)-3-cyclopropylaminomethyl-4-methyl-1-pyrrolidinyl]-9-fluoro-2,3-dihydro-3-methyl-7-oxo-7H-pyrido[1,2,3-d,e][1,4]benzoxazine-6-carboxylic acid]: the MIC in experiment [1] stood at 31 µg/mL (≈ 74.6 µM); in the experiment on S. aureus Smith it was 0.008; in experiment [2] it was 0.008; against S. pneumoniae Type III, 0.016; with E. faecalis IID682, 0.063.

In the case of `C[C@@H]1CN(c2c(F)cc3c(=O)c(C(=O)O)cn4c3c2OC[C@@H]4C)C[C@H]1CNC1CC1` [Example 12, (3S)-10-[(3R,4S)-3-cyclopropylaminomethyl-4-methyl-1-pyrrolidinyl]-9-fluoro-2,3-dihydro-3-methyl-7-oxo-7H-pyrido[1,2,3-d,e][1,4]benzoxazine-6-carboxylic acid], the MIC in experiment [1] worked out at 63 µg/mL (≈ 152 µM); in the experiment on S. aureus Smith, 0.016; in experiment [2], 0.016; against S. pneumoniae Type III, 0.063; in the experiment on E. faecalis IID682 it was 0.25.

Take `C[C@@H]1CN(c2c(F)cc3c(=O)c(C(=O)O)cn4c3c2OC[C@@H]4C)C[C@@H]1CNC1CC1` [Example 14, (3S)-10-[(3S,4S)-3-cyclopropylaminomethyl-4-methyl-1-pyrrolidinyl]-9-fluoro-2,3-dihydro-3-methyl-7-oxo-7H-pyrido[1,2,3-d,e][1,4]benzoxazine-6-carboxylic acid]: the MIC was 31 µg/mL (≈ 74.6 µM) in experiment [1]; 0.008 in the experiment on S. aureus Smith; 0.008 in experiment [2]; “≦0.008 mg/mL” in the experiment on S. pneumoniae Type III; 0.063 against E. faecalis IID682.

For `C[C@H]1CN(c2c(F)cc3c(=O)c(C(=O)O)cn4c3c2OC[C@@H]4C)C[C@H]1CNC1CC1` [Example 15, (3S)-10-[(3R,4R)-3-cyclopropylaminomethyl-4-methyl-1-pyrrolidinyl]-9-fluoro-2,3-dihydro-3-methyl-7-oxo-7H-pyrido[1,2,3-d,e][1,4]benzoxazine-6-carboxylic acid], the MIC is 63 µg/mL (≈ 152 µM) in experiment [1]; 0.031 with S. aureus Smith; 0.031 in experiment [2]; 0.063 with S. pneumoniae Type III; 0.125 against E. faecalis IID682.

In the case of `C[C@H]1CN(c2c(F)cc3c(=O)c(C(=O)O)cn4c3c2OC[C@@H]4CF)C[C@@H]1CNC1CC1` [Example 17, (3R)-10-[(3S,4R)-3-cyclopropylaminomethyl-4-methyl-1-pyrrolidinyl]-9-fluoro-3-fluoromethyl-2,3-dihydro-7-oxo-7H-pyrido[1,2,3-d,e][1,4]benzoxazine-6-carboxylic acid], the MIC was 63 µg/mL (≈ 145 µM) in experiment [1]; 0.008 in the experiment with S. aureus Smith; 0.008 in experiment [2]; 0.016 against S. pneumoniae Type III; 0.063 in the experiment on E. faecalis IID682.

For `C[C@@H]1CN(c2c(F)cc3c(=O)c(C(=O)O)cn4c3c2OC[C@@H]4CF)C[C@@H]1CNC1CC1` [Example 18, (3R)-10-[(3S,4S)-3-cyclopropylaminomethyl-4-methyl-1-pyrrolidinyl]-9-fluoro-3-fluoromethyl-2,3-dihydro-7-oxo-7H-pyrido[1,2,3-d,e][1,4]benzoxazine-6-carboxylic acid], the MIC was found to be 63 µg/mL (≈ 145 µM) in experiment [1]; 0.008 with S. aureus Smith; 0.016 in experiment [2]; 0.016 with S. pneumoniae Type III; 0.063 in the experiment with E. faecalis IID682.

Source of the values: US7153851B2, “10-(3-cyclopropylaminomethyl-1-pyrrolidinyl)pyridobenzoxazinecarboxylic acid derivative effective against resistant bacterium” (Kyorin Pharmaceutical Co., Ltd., priority 2002, dated 2006).
